Measurements reported in patent publication US8993635B2, “Method of increasing or maintaining the reproductive performance of sows” (Pork CRC Ltd, priority 2010, dated 2015).
Marks after values point to notes of the source that are not given here.

Legend:
[1] = test system: Large White/Landrace parity 1 sows; experiment: Paylean (ractopamine) treatment during first lactation: maternal catabolism, post-weaning fertility, piglet growth, milk composition (Example 2); assay type: in vivo, pig; conditions: for MMD loss in lactation (mm): maximum eye muscle depth; for Live weight loss in lactation (kg) Days 1-7 / Live weight loss in lactation (kg) Days 8-14 / Live weight loss in lactation (kg) Days 15-20: parity 1 sows, ractopamine 10 ppm days 1-13, 20 ppm from day 14 until mating; for 2nd litter size: Born alive / 2nd litter size: Total born: second litter; for Proportion sows exhibiting oestrus: within 10 days of weaning
Description: This experiment was conducted at the University of Adelaide's Pig and Poultry Production Institute (PPPI) at Roseworthy, South Australia, with approval from the animal ethics committees of Primary Industries and Resources South Australia and The University of Adelaide. The experiment used sixty Large White/Landrace parity 1 sows, and was conducted in four replicates: replicates one and two were run in October and November 2006, respectively (spring); and replicates three and four were run in March and April 2007, respectively (autumn).
At entry into the farrowing shed, Sixty Large White/Landrace first parity sows were weighed, and P2 backfat and maximum eye muscle depth (MMD) measured. Sows were then stratified according to both liveweight and body composition and allocated to one of two treatment groups (n=30 sows). One group (Control) received a standard lactation diet (0.71 g avail. lys/MJ DE) throughout lactation, whilst the other group (Ractopamine) received the same standard lactation diet but supplemented with ractopamine at 10 parts per million (ppm) from days 1-13 of lactation and 20 ppm from day 14 of lactation until mating. Dietary treatments commenced on day 1 of lactation (Day 0=first 24 hours after farrowing). During lactation, the amount of feed offered each day was stepped up gradually, reaching 6 kg/day by day 7 of lactation, and was fed over three meals per day, with daily feed disappearance recorded for each sow. Weaning took place 21 days after farrowing, and between weaning and first Al sows received 3 kg/day of their respective diets. Sows were weighed, and P2 backfat and MMD measured on days 1, 7, 14 and 20 of lactation. Gilts were weighed prior to being fed, and P2 backfat and MMD were measured over the last rib 65 mm down from the vertebrae by an experienced commercial operator using a 3.5 MHz linear probe (Ausonics Impact). Litter size was standardised to 9 piglets within 24 hours of farrowing, with piglets receiving only maternal milk as their feed source and weighed on days 1, 7, 13 and 20 of their mother's lactation. Maternal milk samples were collected on days 3, 13 and 20 of lactation and analysed for fat and protein content.
After weaning, sows were housed in groups of three or four. Boar exposure commenced on the fourth day after weaning, consisted of 15 minutes of full, physical boar contact and was conducted in a detection mating area (DMA). At their first oestrus after weaning, sows two artificial inseminations (AIs), 24 hours apart.
All Als took place in the DMA, with fence-line contact with a boar during the procedure. Inseminations were performed as per standard industry practice using disposable spirette catheters, with each insemination consisting of an 80 ml dose of fresh, extended semen (3×10^9 spermatozoa per inseminate; <4 days old). Semen used for this experiment was purchased from a commercial artificial insemination collection centre (SABOR Pty. Ltd, Clare, South Australia). Sows not detected in oestrus by 10 days after weaning were described as anoestrous.

[2] = test system: large white first parity sows; experiment: Supplementary ractopamine in the lactation diet: sow weight loss and subsequent reproductive performance (Example 1); assay type: in vivo, pig
Description: Sixty large white first parity sows were allocated to one of two treatment groups (n=30 sows/treatment). One group (CONT) received a standard lactation diet (0.71 g available lysine/MJ digestible energy (DE)) throughout lactation, whilst the other group (RAC) received the standard lactation diet supplemented with ractopamine at 10 ppm from d 1-13 of lactation and 20 ppm from d 14 of lactation until mating. The amount of feed offered each day was stepped up gradually, reaching 5 kg/day by d 4 of lactation, and maintained at this level for the rest of lactation. Sows were weighed and P2 backfat measured on d 1, 14 and 20 of lactation, the litter size standardised to 9 piglets within 24 hours of lactation. Sows were weaned on d 21 of lactation, with boar exposure commencing 4 d after weaning and sows artificially inseminated twice at their first oestrus post-weaning. Subsequent reproductive performance of all sows was recorded: weaning-to-oestrus interval (WOI) and second litter size. Sows failing to epress eostrus within 10 d of weaning were deemed to be anoestrus and allocated a nominal weaning-to-oestrus interval of 15 d. A general analysis of variance model was used to study the effects of RAC supplementation on sow weight loss during lactation and subsequent reproductive performance.

`CC(CCc1ccc(O)cc1)NCC(O)c1ccc(O)cc1` (racemic) [Ractopamine, ractopamine] was tested, and the “Proportion mated sows pregnant” value ([1]; after two AIs at first oestrus post-weaning) was 0.91, the “P2 backfat loss in lactation (mm)” value [1] was “lost significantly less” and the “P2 backfat loss in lactation (mm)” value ([1]; listed as Ractoparnine) was 2.44^b mm. The “MMD loss in lactation (mm)” value [1] was “similar”, the “MMD loss in lactation (mm)” value ([1]; listed as Ractoparnine) was 2.1 mm and the “Live weight loss in lactation (kg) Days 1-7” value [1] was “similar”. The “Live weight loss in lactation (kg) Days 8-14” value [1] was “similar”, the “Live weight loss in lactation (kg) Days 15-20” value [1] was “lost significantly less” and the “Live weight loss in lactation (kg) Days 1-7” value ([1]; listed as Ractoparnine) was 2.43 kg. The “Live weight loss in lactation (kg) Days 8-14” value ([1]; listed as Ractoparnine) was 2.98 kg, the “Live weight loss in lactation (kg) Days 15-20” value ([1]; listed as Ractoparnine) was 0.66^b kg and the “2nd litter size: Born alive” value [1] was “tendency (P=0.064) for the number of piglets born alive-at the second litter to be higher”. For the same molecule, the “2nd litter size: Total born” value [1] was “numerical, but not significant, increase”, the “2nd litter size: Born alive” value ([1]; listed as Ractoparnine) was 9.48** and the “2nd litter size: Total born” value ([1]; listed as Ractoparnine) was 9.66. For the same molecule, the “Weaning-to-oestrus (d)” value ([1]; sows not in oestrus within 10 days assigned nominal 15 days) was “similar”, the “Weaning-to-oestrus” value ([1]; sows not in oestrus within 10 days assigned nominal 15 days, listed as Ractoparnine) was 6.39 days and the “Proportion sows exhibiting oestrus” value [1] was “numerical, but not significant, reduction in the proportion of Control compared to Ractopamine sows”. The “Proportion sows exhibiting oestrus” value ([1]; listed as Ractoparnine) was 0.95, the “weaning-to-oestrus interval (WOI)” value ([2]; anoestrus sows allocated nominal 15 d) was 6.4 ± 0.63 days and the “Lactation weight loss (kg) Days 1-14” value ([2]; first parity sows, ractopamine 10 ppm d 1-13, 20 ppm from d 14) was 4.6 ± 1.41 kg. For the same molecule, the “Piglets born at second litter, Total born” value ([2]; subsequent (second) litter) was 9.7 ± 0.54 and the “proportion of sows exhibiting oestrus within 10 d of weaning” value ([2]; within 10 d of weaning) was 0.95±0.08.
